Experimental data from PubChem BioAssay (NCI).
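Where inhibition never reached the appropriate level, the endpoint shown equals the highest concentration tested. Otherwise, values were interpolated linearly from a five-concentration, 48-hour dose response in 96-well plates. TGI is the concentration that stops growth completely.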

Key:
Experiment in all cases: NCI tumour cell line growth inhibition, 48 h
[1] = test system: BT-549 breast
[2] = test system: HS 578T breast
[3] = test system: NCI-H460 lung
[4] = test system: MDA-MB-435
[5] = test system: SF-268 CNS
[6] = test system: SK-OV-3 ovarian
[7] = test system: SNB-19 CNS
[8] = test system: DU-145 prostate
[9] = test system: UO-31 renal
[10] = test system: NCI-H522 lung
[11] = test system: SK-MEL-2 melanoma
[12] = test system: RXF 393 renal
[13] = test system: SR leukemia
[14] = test system: MOLT-4 leukemia
[15] = test system: HT29 colon
[16] = test system: NCI/ADR-RES ovarian
[17] = test system: MDA-N
[18] = test system: NCI-H226 lung
[19] = test system: CAKI-1 renal
[20] = test system: HCT-116 colon
[21] = test system: M14 melanoma
[22] = test system: HCC-2998 colon
[23] = test system: MALME-3M melanoma
[24] = test system: OVCAR-5 ovarian
[25] = test system: MCF7 breast
[26] = test system: LOX IMVI melanoma
[27] = test system: TK-10 renal
[28] = test system: EKVX NSCLC
[29] = test system: RPMI-8226 leukemia
[30] = test system: PC-3 prostate
[31] = test system: SF-295 CNS
[32] = test system: HL-60(TB) leukemia
[33] = test system: SW-620 colon
[34] = test system: IGROV1 ovarian
[35] = test system: UACC-62 melanoma
[36] = test system: ACHN renal
[37] = test system: HOP-92 NSCLC
[38] = test system: K-562 leukemia
[39] = test system: OVCAR-3 ovarian
[40] = test system: T-47D breast
[41] = test system: KM12 colon
[42] = test system: UACC-257 melanoma
[43] = test system: OVCAR-4 ovarian
[44] = test system: COLO 205 colon
[45] = test system: OVCAR-8 ovarian
[46] = test system: SF-539 CNS
[47] = test system: 786-0 renal
[48] = test system: SK-MEL-28 melanoma
[49] = test system: SK-MEL-5 melanoma
[50] = test system: HCT-15 colon
[51] = test system: U251 CNS
[52] = test system: HOP-62 NSCLC
[53] = test system: SN12C renal
[54] = test system: NCI-H23 lung
[55] = test system: A549 NSCLC
[56] = test system: MDA-MB-231 breast
[57] = test system: SNB-75 CNS
[58] = test system: CCRF-CEM leukemia

In the case of `O=C(Nc1ccc2ncccc2c1)c1cc2c(cc1Cl)Sc1nccn1S2(=O)=O`, the TGI [1] is reported as 41.2 µM, the TGI [2] is reported as > 100 µM and the TGI [3] is reported as 30.6 µM. For the same compound, the TGI [4] was 17.1 µM, the TGI [5] was 48.4 µM and the TGI [6] was 62.5 µM. The TGI [7] was 34.6 µM, the TGI [8] was 31 µM and the TGI [9] was 39.8 µM. The TGI [10] was 24.5 µM, the TGI [11] was 33.3 µM and the TGI [12] was 33.6 µM. For the same compound, the TGI [13] was 45.2 µM, the TGI [14] was 45.5 µM and the TGI [15] was 31.3 µM. The TGI [16] was 47.6 µM, the TGI [17] was 18.3 µM and the TGI [18] was 35.4 µM. For the same compound, the TGI [19] was 79.5 µM, the TGI [20] was 25.4 µM and the TGI [21] was 29.8 µM. The TGI [22] was 27.8 µM, the TGI [23] was 35.1 µM and the TGI [24] was 39.6 µM. It also gave a TGI [25] of 35.2 µM, a TGI [26] of 34.2 µM and a TGI [27] of 69.4 µM. The TGI [28] was 39.1 µM, the TGI [29] was 41 µM and the TGI [30] was > 100 µM. For the same compound, the TGI [31] was 42 µM, the TGI [32] was 26.6 µM and the TGI [33] was 34.1 µM. For the same compound, the TGI [34] was 29.3 µM, the TGI [35] was 32.7 µM and the TGI [36] was 87.6 µM. For the same compound, the TGI [37] was 76.7 µM, the TGI [38] was 47 µM and the TGI [39] was 47.6 µM. The TGI [40] was 45.4 µM, the TGI [41] was 21.7 µM and the TGI [42] was 47.8 µM. It also gave a TGI [43] of 73 µM, a TGI [44] of 37.3 µM and a TGI [45] of 43.7 µM. For the same compound, the TGI [46] was 57.4 µM, the TGI [47] was 27.9 µM and the TGI [48] was 42 µM. It also gave a TGI [49] of 28.8 µM, a TGI [50] of 24.1 µM and a TGI [51] of 26.4 µM. The TGI [52] was 39.8 µM, the TGI [53] was 33.3 µM and the TGI [54] was 32.5 µM. It also gave a TGI [55] of 40.6 µM, a TGI [56] of 45.1 µM and a TGI [57] of 30.7 µM.
`Nc1nc(N)c2c(Cl)c(CNc3ccc(C(=O)NC(CC(=O)O)C(=O)O)cc3)ccc2n1` (centres undefined) was tested, and the TGI [1] was > 100 µM, the TGI [2] was > 100 µM and the TGI [3] was > 100 µM. The TGI [4] was > 100 µM, the TGI [5] was > 100 µM and the TGI [6] was > 93.3 µM. For the same compound, the TGI [7] was > 100 µM, the TGI [8] was > 100 µM and the TGI [9] was > 100 µM. The TGI [11] was > 100 µM, the TGI [12] was > 100 µM and the TGI [13] was > 100 µM. The TGI [14] was > 100 µM, the TGI [15] was > 100 µM and the TGI [16] was > 100 µM. The TGI [17] was > 100 µM, the TGI [18] was > 100 µM and the TGI [19] was > 100 µM. For the same compound, the TGI [20] was > 100 µM, the TGI [21] was > 100 µM and the TGI [22] was > 100 µM. The TGI [23] was > 100 µM, the TGI [25] was > 34.2 µM and the TGI [26] was > 100 µM. For the same compound, the TGI [27] was > 100 µM, the TGI [29] was > 100 µM and the TGI [30] was > 100 µM. For the same compound, the TGI [31] was > 100 µM, the TGI [32] was > 100 µM and the TGI [33] was > 100 µM. For the same compound, the TGI [34] was 0.415 µM, the TGI [35] was > 100 µM and the TGI [36] was > 100 µM. For the same compound, the TGI [37] was > 100 µM, the TGI [38] was > 100 µM and the TGI [39] was > 100 µM. The TGI [40] was > 100 µM, the TGI [41] was > 100 µM and the TGI [42] was > 100 µM. For the same compound, the TGI [43] was > 100 µM, the TGI [44] was > 100 µM and the TGI [45] was > 100 µM. The TGI [46] was 31.9 µM, the TGI [47] was > 100 µM and the TGI [49] was > 100 µM. For the same compound, the TGI [50] was > 100 µM, the TGI [51] was > 100 µM and the TGI [52] was > 100 µM. The TGI [53] was > 100 µM, the TGI [54] was > 100 µM and the TGI [55] was > 100 µM. The TGI [56] was > 100 µM and the TGI [57] was > 100 µM.
In the case of `CC(=O)N1C(Nc2cnc3ccccc3c2)CCN1c1ccccc1` (centres undefined), the TGI [1] is reported as > 10 µM, the TGI [2] is reported as > 10 µM and the TGI [3] is reported as > 10 µM. The TGI [4] was > 10 µM, the TGI [5] was > 10 µM and the TGI [6] was > 10 µM. The TGI [7] was > 10 µM, the TGI [8] was > 10 µM and the TGI [9] was > 10 µM. For the same compound, the TGI [10] was > 10 µM, the TGI [11] was > 10 µM and the TGI [12] was > 10 µM. For the same compound, the TGI [13] was > 10 µM, the TGI [14] was > 10 µM and the TGI [15] was > 10 µM. For the same compound, the TGI [16] was > 10 µM, the TGI [17] was > 10 µM and the TGI [18] was > 10 µM. For the same compound, the TGI [19] was > 10 µM, the TGI [20] was > 10 µM and the TGI [21] was > 10 µM. The TGI [22] was > 10 µM, the TGI [23] was > 10 µM and the TGI [24] was > 10 µM. For the same compound, the TGI [25] was > 10 µM, the TGI [26] was > 10 µM and the TGI [27] was > 10 µM. The TGI [28] was > 10 µM, the TGI [29] was > 10 µM and the TGI [30] was > 10 µM. The TGI [31] was > 10 µM, the TGI [32] was > 10 µM and the TGI [33] was > 10 µM. For the same compound, the TGI [34] was > 10 µM, the TGI [36] was > 10 µM and the TGI [38] was > 10 µM. For the same compound, the TGI [39] was > 10 µM, the TGI [40] was > 10 µM and the TGI [42] was > 10 µM. For the same compound, the TGI [43] was > 10 µM, the TGI [44] was > 10 µM and the TGI [45] was > 10 µM. For the same compound, the TGI [46] was > 10 µM, the TGI [47] was > 10 µM and the TGI [48] was > 10 µM. The TGI [49] was > 10 µM, the TGI [50] was > 10 µM and the TGI [52] was > 10 µM. For the same compound, the TGI [58] was > 10 µM, the TGI [53] was > 10 µM and the TGI [54] was > 10 µM. For the same compound, the TGI [55] was > 10 µM, the TGI [56] was > 10 µM and the TGI [57] was > 10 µM.
